Data on two compounds can be found in patent US20240307480A1, “MELFLUFEN FOR USE IN THE TREATMENT OF MULTIPLE MYELOMA” (Oncopeptides AB, priority 2021, published 2024).

The assay relates to patients with relapsed refractory multiple myeloma (RRMM) refractory to lenalidomide. Kind of assay: Randomized, controlled, open-label, Phase 3 multicenter study of melflufen+dexamethasone versus pomalidomide+dexamethasone (Example 1). The format is in vivo, human. To be noted: for OS / PFS: no stem cell transplant. The protocol:
Patients received either melflufen+dexamethasone or pomalidomide+dexamethasone.
Patients were randomized to either one of two arms (see Table 1 below): • Arm A: Melphalan flufenamide (Melflufen) 40 mg on Day 1 and dexamethasone 40 mg on Days 1, 8, 15 and 22 of each 28-day cycle. • Arm B: Pomalidomide 4 mg daily on Days 1 to 21 and dexamethasone 40 mg on Days 1, 8, 15 and 22 of each 28-day cycle.
Dose modifications and delays in therapy were implemented based on patient tolerability as detailed in the protocol. In the event of a cycle delay, unrelated to dexamethasone toxicity, it was recommended to continue dexamethasone weekly.
• Study Type: Interventional (Clinical Trial) • Actual Enrollment: 495 participants • Allocation: Randomized • Intervention Model: Parallel Assignment • Masking: Single (Outcomes Assessor) • Primary Purpose: Treatment • Official Title: A Randomized, Controlled, Open-label, Phase 3 Study of Melflufen/Dexamethasone Compared With Pomalidomide/Dexamethasone for Patients With Relapsed Refractory Multiple Myeloma Who Are Refractory to Lenalidomide
• 1. Progression Free Survival (PFS) [Time Frame: From randomization to time of progression, or, if no progression, 24 months after end of treatment]: To compare the PFS of melflufen plus dexamethasone (Arm A) versus pomalidomide plus dexamethasone (Arm B) as assessed by the Independent Review Committee (IRC) according to the International Myeloma Working Group Uniform Response Criteria (IMWG-URC)
• 1. […] Overall Survival (OS) [Time Frame: From randomization until end of study (2 years after confirmed progression)]: To assess and compare OS in Arm A versus Arm B • 4. Safety and Tolerability: Number of patients with treatment-emergent adverse events, including clinical laboratory and vital signs abnormalities, as assessed by CTCAE v4.0 [Time Frame: From start of dosing until 30 days after last dose]: To assess and compare safety and tolerability in Arm A versus Arm B. Number of patients with treatment-emergent adverse events, including clinical laboratory and vital signs abnormalities, as assessed by CTCAE v4.0 will be presented. No formal statistical analysis will be performed for safety endpoints.
• 1. Male or female, age 18 years or older • 2. A prior diagnosis of multiple myeloma with documented disease progression requiring further treatment at time of screening • 3. Measurable disease defined as any of the following: • Serum monoclonal protein ≥0.5 g/dl by protein electrophoresis. • ≥200 mg/24 hours of monoclonal protein in the urine on 24-hour electrophoresis • Serum free light chain ≥10 mg/dl AND abnormal serum kappa to lambda free light chain ratio • 4. Received 2-4 prior lines of therapy, including lenalidomide and a PI, either sequential or in the same line, and is refractory (relapsed and refractory or refractory) to both the last line of therapy and to lenalidomide (≥10 mg) administered within 18 months prior to randomization. Refractory to lenalidomide is defined as progression while on lenalidomide therapy or within 60 days of last dose, following at least 2 cycles of lenalidomide with at least 14 doses of lenalidomide per cycle • 5. Life expectancy of ≥6 months • 6. Eastern Cooperative Oncology Group (ECOG) performance status ≤2 • 7. […] Participants must agree to ongoing pregnancy testing. All patients must be willing to comply with all requirements of the USA pomalidomide Risk Evaluation and Mitigation Strategy (REMS) program or the pomalidomide Pregnancy Prevention Plan (PPP) • 8. Ability to understand the purpose and risks of the study and provide signed and dated informed consent • 9. 12-lead Electrocardiogram (ECG) with QT interval calculated by Fridericia Formula (QTcF) interval of ≤470 msec Fridericia Formula • 10. […] Must be able to take antithrombotic prophylaxis • 12. Must have, or be willing to have an acceptable central catheter.

Where [1] appears, read: excluding patients who had received a stem cell transplant and progressed in under 36 months (melflufen+dex n=145, pomalidomide+dex n=148).
[2] abbreviates: subgroup patients under 65 years.
The mark [3] stands for this setting: patients 75 or over who received melflufen, pomalidomide comparator worded as patients who had not received a stem cell transplant.
Setting [4] is: patients who had not received a stem cell transplant as a past treatment (melflufen n=121, pomalidomide n=129), each arm with dexamethasone.
Setting [5] is: stem cell transplant at least 5 years ago, melflufen in relation to pomalidomide, value below 1 favours melflufen.

For `CCOC(=O)[C@H](Cc1ccc(F)cc1)NC(=O)[C@@H](N)Cc1ccc(N(CCCl)CCCl)cc1.Cl` [melflufen, L-melphalanyl-4-fluoro-L-phenylalanine ethyl ester], the “median overall survival (OS)” value runs as follows: under setting [1], 23.6 months; under setting [3], 21.6 months; under setting [4], 21.6 months. In addition, the OS worked out at 22.2 (subgroup 64 to 74 years); 14.8 (subgroup 75 years and over); 22.2 (subgroup age under 75 years); 27.5 under setting [2]. Moreover, the PFS is, setting by setting: (subgroup 64 to 74 years) 9.3; (subgroup 75 years and over) 9.3; (subgroup age under 75 years) 9.4; under setting [2], 10.8. The “median PFS” value under setting [3] was determined as 9.4 months. Under setting [4], the “median progression free survival (PFS)” value was 9.3 months. Moreover, the “hazard ratio (PFS)” value (stem cell transplant 2.5 to 5 years ago, melflufen in relation to pomalidomide, value below 1 favours melflufen) is listed as 0.83. The OS hazard ratio under setting [5] was 0.87. Under setting [5], the PFS hazard ratio was determined as 0.76.
As for `Nc1cccc2c1C(=O)N(C1CCC(=O)NC1=O)C2=O` (stereo not shown) [pomalidomide, reference compound], the “median overall survival (OS)” value reads like this: under setting [1], 19.8 months; under setting [3], 8.3 months; under setting [4], 16.5 months. In addition, the OS (subgroup 64 to 74 years) turned out to be 15.0; the OS (subgroup 75 years and over) amounted to 8.1; the OS (subgroup age under 75 years) turned out to be 18.2. Moreover, the PFS is, setting by setting: (subgroup 64 to 74 years) 3.9; (subgroup 75 years and over) 4.9; (subgroup age under 75 years) 4.3; under setting [2], 4.7. Further, under setting [3], the “median PFS” value is reported as 4.6 months. Under setting [4], the “median progression free survival (PFS)” value is listed as 4.6 months.
